Where a SMILES comes first, the peptide text is derived from it. Bridges are numbered along the chain shown (N, C = ends).
Legend:
[1] = test system: Kv2.1; assay: microelectrode voltage-clamp, Xenopus laevis oocytes, Kv2.1; type: cell-based; details: 10 μM, 300-ms depolarization to +20 mV from -90 mV, pH 7.5, 19-23°C, n = 3
Protocol: Briefly, plasmids were linearized, and transcription was carried out according to the standardized protocol. Afterwards, the capped cRNAs that encoded the related ion channels were prepared. To conduct transcription in vitro, firstly, NotL was utilized to linearize plasmids pCI that contained both Kv1.1 (Accession: NM_010595.3) and Kv2.1 (Accession: AF026005.1), whereas SphI was adopted to linearize plasmid PcDNA3 containing Kv1.2 (Accession: NM_012970.3) gene. […] Thereafter, the linearized plasmids were used as the templates to synthesize cRNAs in vitro using the large-scale T7 mMESSAGE mMACHINE transcription kit (Ambion, USA).
A mature female X. laevis was placed on the ice for anesthesia, and then the Xenopus laevis oocytes at stage IV-VI were extracted. Subsequently, those extracted oocytes were treated by collagenase (1 mg/mL) contained within the calcium-depleted ND96 solution (containing 96 mM NaCl, 10 mM HEPES, 1 mM MgCl2, and 2 mM KCl) for defolliculation. […]
Firstly, the effects of JZTX-X on the isoforms of potassium channels (including Kv1.1-1.3, Kv2.1, as well as Kv4.2-4.3) contained within the X. laevis oocytes were investigated through the microelectrode voltage-clamp approach. […] We also determined the effects of JZTX-X on Ito potassium channels in rat DRG neurons; those current amplitudes were inhibited by 54.4±6.8% when 500 nM JZTX-X was applied (Fig. 3K, n = 5).

[2] = mechanical hyperalgesia / nociceptive behavior in mice (von Frey, up-down); type: in vivo, mouse (male C57BL/6); details: 40 nmol/kg
Protocol: In the present study, male C57BL/6 mice weighing 20-25 g were utilized. This study was performed following the Guide for the Care and Use of Laboratory Animals released by the United States National Institutes of Health (US NIH). Our study protocol was approved by the Animal Experiments Ethics Committee at Central Southern University (No. 2018-2-6). Each operation was performed under isoflurane-induced anesthesia to reduce pain and minimize animal suffering. Lumbar puncture was also conducted for intrathecal injection, as described previously. Next, the effect of JZTX-X on nociception was evaluated by assessing the behaviors during the mechanical hyperalgesia process. The JZTX-X-induced mechanical hyperalgesia was investigated by two experiments via various administration routes, including intrathecal and intraplantar injections. Then, animals were challenged via intrathecal (10 µL) or intraplantar (20 µL) injection of JZTX-X (40 nmol/kg). The control group was given a physiological solution, which contained 0.9% NaCl, […].
Mechanical hyperalgesia was measured according to the previously depicted “up-down” paradigm. Individual mice were allowed to acclimate for at least 30 min on the mesh floor in suspended chambers. After acclimatization, various calibrated von Frey filaments (Stoelting, Wood Dale, IL) were applied to all animals, which were vertical to the hind paw plantar surfaces becausethere was enough force for bending those filaments for 6 s. Later, the animal responses were recorded. The positive response was defined as paw flinching or brisk withdrawal. When there was no response, force filament at a greater level was applied. Accordingly, force ligament at a lower level was applied […]. The “up-down” approach was adopted to calculate the 50% likelihood where one withdrawal response was produced by the simple stimulus.

With `CC(C)C[C@@H]1NC(=O)[C@H](CCCCN)NC(=O)[C@H](Cc2ccc(O)cc2)NC(=O)[C@@H]2CSSC[C@@H]3NC(=O)[C@H](Cc4ccc(O)cc4)NC(=O)[C@H](Cc4ccccc4)NC(=O)CNC(=O)[C@H](C)NC(=O)[C@H](CSSC[C@H](NC(=O)[C@@H](N)CC(C)C)C(=O)N[C@@H](CO)C(=O)N[C@@H](CCCNC(=N)N)C(=O)N[C@@H](CCC(=O)O)C(=O)NCC(=O)N[C@@H](CCC(=O)O)C(=O)N[C@@H](Cc4ccccc4)C(=O)N2)NC(=O)[C@H](CSSC[C@@H](C(=O)N[C@@H](Cc2ccc(O)cc2)C(=O)N[C@@H](CCCNC(=N)N)C(=O)N[C@@H](CC(N)=O)C(=O)O)NC(=O)[C@H](Cc2c[nH]cn2)NC(=O)[C@H](CC(C)C)NC(=O)[C@H](C(C)C)NC(=O)[C@H](Cc2ccccc2)NC(=O)[C@H](C)NC(=O)[C@H](CCCCN)NC3=O)NC(=O)[C@H](CCCCN)NC(=O)[C@H](CCCNC(=N)N)NC1=O` [JZTX-X, Jingzhaotoxin-X] (H-LCSREGEFCYKLRKCCAGFYCKAFVLHCYRN-OH; disulfide 2-16, 9-21, 15-28; N-terminus assumed) the “inhibition of Kv2.1 current” value [1] was “less than 5%”, the “baseline threshold of tactile withdrawal” value ([2]; intraplantar, n = 8) was “markedly decreased” and the “duration of reduced paw withdrawal threshold” value ([2]; intrathecal or intraplantar, after cessation of treatment) was “at least 120 min”. The spontaneous nociceptive behaviors ([2]; intrathecal or intraplantar, n = 8) was “did not induce spontaneous nociceptive behaviors” and the “baseline threshold of tactile withdrawal” value ([2]; intrathecal, n = 8) was “markedly decreased”.

— publication PMC7269146, “Jingzhaotoxin-X, a gating modifier of Kv4.2 and Kv4.3 potassium channels purified from the venom of the Chinese tarantula Chilobrachys jingzhao” (The Journal of Venomous Animals and Toxins Including …, 2020)
